Among the data in US20050282743A1, “Molecular interactions in cells” (Arbor Vita Corporation, priority 2001, published 2005) are Classification and Kd values, retold here.

Holding throughout (assay type): binding
Test [1] addresses T1, PDZ protein (GST-PDZ fusion) (Homo sapiens, UniProt O15018).
T1 construct: made in house; host or cells: E. coli (DH5alpha, BL21 or JM109)
Kind of test: G' assay (10 uM PL peptide), results of TABLE 7 and TABLE 12. In a few lines:
(§1)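 Same steps as the G-zero format, apart from a peptide concentration of 10 uM in place of 20 uM in step 2. Amino-terminally biotinylated PL peptides bind GST-PDZ fusions, and retained peptide is quantified by 450 nm absorbance.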

The target of test [2] is T2, PDZ protein (GST-PDZ fusion) (Homo sapiens, UniProt Q15700).
T2 construct: made in house; host or cells: E. coli (DH5alpha, BL21 or JM109)
T2 sequence (Q15700 whole entry, the tested form may be a part): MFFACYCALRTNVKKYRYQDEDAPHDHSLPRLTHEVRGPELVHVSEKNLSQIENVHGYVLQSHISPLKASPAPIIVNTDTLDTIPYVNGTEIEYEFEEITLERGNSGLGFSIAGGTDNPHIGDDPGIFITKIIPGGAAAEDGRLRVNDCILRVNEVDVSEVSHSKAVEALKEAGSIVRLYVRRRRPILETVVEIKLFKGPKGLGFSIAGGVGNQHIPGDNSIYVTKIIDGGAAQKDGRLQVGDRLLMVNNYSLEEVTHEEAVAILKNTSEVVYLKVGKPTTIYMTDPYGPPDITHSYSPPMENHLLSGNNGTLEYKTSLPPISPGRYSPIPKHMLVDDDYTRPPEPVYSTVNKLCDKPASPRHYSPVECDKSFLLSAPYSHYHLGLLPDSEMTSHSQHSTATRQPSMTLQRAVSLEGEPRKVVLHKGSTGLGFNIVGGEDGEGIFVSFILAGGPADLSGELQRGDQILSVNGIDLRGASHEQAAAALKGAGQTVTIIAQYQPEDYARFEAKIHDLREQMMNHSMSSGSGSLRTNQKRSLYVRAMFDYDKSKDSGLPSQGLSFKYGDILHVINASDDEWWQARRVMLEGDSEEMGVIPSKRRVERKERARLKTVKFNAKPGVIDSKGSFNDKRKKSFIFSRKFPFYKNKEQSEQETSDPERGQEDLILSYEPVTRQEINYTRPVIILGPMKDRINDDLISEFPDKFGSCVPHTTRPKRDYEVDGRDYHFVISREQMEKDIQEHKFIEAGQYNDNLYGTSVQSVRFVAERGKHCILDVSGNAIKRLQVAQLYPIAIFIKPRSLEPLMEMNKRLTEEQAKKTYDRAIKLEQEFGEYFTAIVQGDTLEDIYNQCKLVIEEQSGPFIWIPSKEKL
The description is as above. In a few lines: as §1

The target of test [3] is T3, PDZ protein (GST-PDZ fusion) (Homo sapiens, UniProt Q02410).
T3 construct: made in house; host or cells: E. coli (DH5alpha, BL21 or JM109)
T3 sequence (Q02410 1-837): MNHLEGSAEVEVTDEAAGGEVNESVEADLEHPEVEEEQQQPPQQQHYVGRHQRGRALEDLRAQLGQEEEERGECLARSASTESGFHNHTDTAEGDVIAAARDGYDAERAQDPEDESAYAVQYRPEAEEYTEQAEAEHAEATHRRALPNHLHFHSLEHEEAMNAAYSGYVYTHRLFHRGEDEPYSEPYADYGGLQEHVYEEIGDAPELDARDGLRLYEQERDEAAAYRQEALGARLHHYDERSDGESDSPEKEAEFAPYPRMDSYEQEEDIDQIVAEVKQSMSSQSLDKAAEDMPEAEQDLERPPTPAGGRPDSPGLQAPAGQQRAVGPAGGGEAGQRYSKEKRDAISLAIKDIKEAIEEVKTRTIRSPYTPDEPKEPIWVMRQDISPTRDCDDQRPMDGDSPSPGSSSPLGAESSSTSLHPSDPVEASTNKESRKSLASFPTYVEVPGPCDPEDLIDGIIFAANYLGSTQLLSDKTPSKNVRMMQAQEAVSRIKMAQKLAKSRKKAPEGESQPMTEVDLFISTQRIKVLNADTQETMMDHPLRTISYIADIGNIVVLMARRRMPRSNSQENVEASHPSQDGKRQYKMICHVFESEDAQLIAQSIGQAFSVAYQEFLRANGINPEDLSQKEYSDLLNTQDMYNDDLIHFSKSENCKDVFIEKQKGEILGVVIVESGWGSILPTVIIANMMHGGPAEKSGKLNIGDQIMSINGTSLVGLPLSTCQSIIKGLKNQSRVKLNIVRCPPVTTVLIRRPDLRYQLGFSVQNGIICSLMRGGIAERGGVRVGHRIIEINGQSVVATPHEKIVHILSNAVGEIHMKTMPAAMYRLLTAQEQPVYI
The test is described as above. In a few lines:
as §1

Test [4] addresses PDZ-domain polypeptide (GST/PDZ fusion protein). In words: Apparent affinity (Kd) by titration of PL peptide in the G assay. The following applies: PDZ BAI-1, PDZ Domain 2; read-out: Peptide Optimal Conc (Kd by titration of the PL peptide). The method in brief:
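A fixed concentration of GST/PDZ fusion protein, 5 ug/ml by default, was mixed in solution with increasing labeled PL peptide (e.g. 0.1 uM-1 mM). Reaction times ranged from 10 minutes to 2 days at 4-37° C. Complexes were separated from free peptide and detected via the label as in the G assay, apparent affinity coming from the saturating concentration.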

pKd: −log10 of the molar value. Ends that are not written are not given here. Peptide text beside a SMILES is read from it. * marks the point of attachment. Biotin = O=C1N[C@H]2[C@H](CS[C@H]2CCCCC(=O)*)N1

T1 sequence (O15018 whole entry, the tested form may be a part): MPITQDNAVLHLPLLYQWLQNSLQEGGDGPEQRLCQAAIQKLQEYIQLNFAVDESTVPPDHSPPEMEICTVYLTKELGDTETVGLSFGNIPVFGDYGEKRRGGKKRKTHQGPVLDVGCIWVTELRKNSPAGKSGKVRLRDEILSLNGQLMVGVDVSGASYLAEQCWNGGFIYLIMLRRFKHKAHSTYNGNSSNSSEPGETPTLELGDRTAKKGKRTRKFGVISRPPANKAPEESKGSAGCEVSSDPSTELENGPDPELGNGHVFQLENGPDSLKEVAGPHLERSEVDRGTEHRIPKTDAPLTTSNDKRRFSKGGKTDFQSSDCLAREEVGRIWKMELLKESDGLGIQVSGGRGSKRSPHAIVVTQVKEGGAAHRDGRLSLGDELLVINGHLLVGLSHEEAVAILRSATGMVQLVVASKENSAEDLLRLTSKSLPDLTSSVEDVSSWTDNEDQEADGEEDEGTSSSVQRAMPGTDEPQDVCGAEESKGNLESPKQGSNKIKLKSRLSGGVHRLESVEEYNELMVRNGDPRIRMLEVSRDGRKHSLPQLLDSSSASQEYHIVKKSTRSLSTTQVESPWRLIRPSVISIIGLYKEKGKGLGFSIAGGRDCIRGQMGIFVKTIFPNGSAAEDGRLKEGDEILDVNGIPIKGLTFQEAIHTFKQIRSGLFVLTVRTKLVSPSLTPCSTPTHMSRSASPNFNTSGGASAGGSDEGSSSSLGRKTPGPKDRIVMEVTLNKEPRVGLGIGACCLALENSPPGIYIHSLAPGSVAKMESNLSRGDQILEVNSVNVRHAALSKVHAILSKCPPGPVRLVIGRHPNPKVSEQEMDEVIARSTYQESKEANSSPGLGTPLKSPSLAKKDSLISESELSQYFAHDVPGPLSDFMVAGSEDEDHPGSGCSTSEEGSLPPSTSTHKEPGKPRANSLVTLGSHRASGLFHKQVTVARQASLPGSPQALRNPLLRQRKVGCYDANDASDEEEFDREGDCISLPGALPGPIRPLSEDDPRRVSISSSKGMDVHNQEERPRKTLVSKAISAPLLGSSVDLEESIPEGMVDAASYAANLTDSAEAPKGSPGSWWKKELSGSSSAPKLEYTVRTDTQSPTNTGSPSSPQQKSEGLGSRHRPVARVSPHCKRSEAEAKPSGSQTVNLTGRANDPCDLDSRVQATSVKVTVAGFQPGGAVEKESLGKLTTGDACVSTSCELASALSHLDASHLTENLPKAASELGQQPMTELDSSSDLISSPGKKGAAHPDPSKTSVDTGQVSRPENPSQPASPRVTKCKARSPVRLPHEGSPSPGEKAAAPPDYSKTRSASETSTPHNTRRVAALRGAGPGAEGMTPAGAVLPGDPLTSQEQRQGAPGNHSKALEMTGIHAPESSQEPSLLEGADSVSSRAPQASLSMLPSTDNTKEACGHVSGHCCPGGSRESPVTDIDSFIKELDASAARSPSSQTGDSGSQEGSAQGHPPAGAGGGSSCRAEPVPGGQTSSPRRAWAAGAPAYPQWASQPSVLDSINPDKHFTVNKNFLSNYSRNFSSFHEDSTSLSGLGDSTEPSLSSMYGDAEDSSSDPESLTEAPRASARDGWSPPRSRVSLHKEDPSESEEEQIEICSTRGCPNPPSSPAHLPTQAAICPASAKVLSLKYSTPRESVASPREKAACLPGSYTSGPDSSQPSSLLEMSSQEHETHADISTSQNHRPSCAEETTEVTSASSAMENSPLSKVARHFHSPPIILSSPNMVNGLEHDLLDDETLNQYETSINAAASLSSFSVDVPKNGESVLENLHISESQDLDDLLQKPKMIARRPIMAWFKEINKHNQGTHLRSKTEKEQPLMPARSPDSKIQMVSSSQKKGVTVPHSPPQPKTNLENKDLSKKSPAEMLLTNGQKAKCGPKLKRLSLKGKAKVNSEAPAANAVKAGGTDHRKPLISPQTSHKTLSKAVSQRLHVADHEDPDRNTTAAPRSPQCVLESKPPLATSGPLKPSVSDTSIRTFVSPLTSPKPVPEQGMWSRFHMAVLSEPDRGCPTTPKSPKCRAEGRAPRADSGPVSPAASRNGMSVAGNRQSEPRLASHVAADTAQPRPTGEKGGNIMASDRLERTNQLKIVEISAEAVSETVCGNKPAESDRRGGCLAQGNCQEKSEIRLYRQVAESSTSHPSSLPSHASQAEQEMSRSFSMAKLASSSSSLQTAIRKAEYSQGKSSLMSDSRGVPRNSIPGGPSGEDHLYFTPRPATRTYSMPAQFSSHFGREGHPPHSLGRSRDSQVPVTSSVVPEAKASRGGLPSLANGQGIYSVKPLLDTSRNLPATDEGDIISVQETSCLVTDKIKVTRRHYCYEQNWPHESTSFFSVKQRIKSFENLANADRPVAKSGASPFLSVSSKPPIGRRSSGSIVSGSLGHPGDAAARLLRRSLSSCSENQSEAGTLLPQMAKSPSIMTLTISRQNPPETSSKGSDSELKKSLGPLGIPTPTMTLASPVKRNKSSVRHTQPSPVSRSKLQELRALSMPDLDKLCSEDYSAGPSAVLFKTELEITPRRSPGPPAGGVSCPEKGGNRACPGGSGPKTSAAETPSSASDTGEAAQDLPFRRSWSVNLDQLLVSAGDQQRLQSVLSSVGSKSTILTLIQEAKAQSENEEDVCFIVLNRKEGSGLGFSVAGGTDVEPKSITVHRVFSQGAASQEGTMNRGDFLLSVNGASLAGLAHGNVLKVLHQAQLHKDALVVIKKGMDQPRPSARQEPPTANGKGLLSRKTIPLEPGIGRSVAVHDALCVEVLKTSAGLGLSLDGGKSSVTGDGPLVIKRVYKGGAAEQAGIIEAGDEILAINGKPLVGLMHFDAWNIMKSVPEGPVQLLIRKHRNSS

In the case of “PYSELNYETSHYPASPDSWV (Biotin-PYSELNYETSHYPASPDSWV) [catenin - delta 2]”, the Classification in test [1] (PDZ AIPC, PDZ Domain 1) is on record as 2 (A450 nm 1-2); in test [2] (PDZ DLG2, PDZ Domain 2), 1 (A450 nm 0-1); in test [3] (PDZ Mint 1, PDZ Domain 1, 2) it was 5 (A450 nm of 4 more than 2× repeated); in test [3] (PDZ Mint 1, PDZ Domain 2), 3 (A450 nm 2-3).
For TQGFPGPATWRRISSLESEV, the Classification in test [1] (PDZ AIPC, PDZ Domain 1) is 3 (A450 nm 2-3); in test [2] (PDZ DLG2, PDZ Domain 1), 4 (A450 nm 3-4); in test [2] (PDZ DLG2, PDZ Domain 2), 5 (A450 nm of 4 more than 2× repeated); in test [3] (PDZ Mint 1, PDZ Domain 1, 2), 1 (A450 nm 0-1); in test [3] (PDZ Mint 1, PDZ Domain 2), 1 (A450 nm 0-1).
With `CC(C)C[C@H](NC(=O)[C@H](C)NC(=O)[C@@H](NC(=O)[C@H](CCC(=O)O)NC(=O)[C@H](CCCNC(=N)N)NC(=O)[C@H](CCCNC(=N)N)NC(=O)CNC(=O)[C@H](CCC(N)=O)NC(=O)[C@H](CC(C)C)NC(=O)[C@H](CCCNC(=N)N)NC(=O)CNC(=O)CNC(=O)[C@H](CCCNC(=N)N)NC(=O)[C@H](C)NC(=O)[C@H](CO)NC(=O)[C@H](CCCNC(=N)N)NC(=O)CNC(=O)CNC(=O)[C@H](C)NC(=O)[C@H](C)NC(=O)CCCC[C@@H]1SC[C@@H]2NC(=O)N[C@@H]21)[C@@H](C)O)C(=O)O` [HPV E6 33 (modified)] (Biotin-AAGGRSARGGRLQGRRETAL-OH; C-terminus assumed), the Classification in test [1] (PDZ AIPC, PDZ Domain 1) was 1 (A450 nm 0-1); in test [2] (PDZ DLG2, PDZ Domain 1) it was 1 (A450 nm 0-1); in test [2] (PDZ DLG2, PDZ Domain 2), 3 (A450 nm 2-3); in test [3] (PDZ Mint 1, PDZ Domain 2), 1 (A450 nm 0-1).
Regarding `CC[C@H](C)[C@H](NC(=O)[C@H](CCC(N)=O)NC(=O)CCCC[C@@H]1SC[C@@H]2NC(=O)N[C@@H]21)C(=O)N[C@@H](CO)C(=O)N1CCC[C@H]1C(=O)NCC(=O)NCC(=O)N[C@@H](CC(C)C)C(=O)N[C@@H](CCC(=O)O)C(=O)N1CCC[C@H]1C(=O)N1CCC[C@H]1C(=O)N[C@@H](CO)C(=O)N[C@@H](CCC(=O)O)C(=O)N[C@@H](CCCCN)C(=O)N[C@@H](Cc1c[nH]cn1)C(=O)N[C@@H](Cc1ccccc1)C(=O)N[C@@H](CCCNC(=N)N)C(=O)N[C@@H](CCC(=O)O)C(=O)N[C@H](C(=O)N[C@@H](CCC(=O)O)C(=O)N[C@H](C(=O)O)C(C)C)[C@@H](C)O` [Tax], the Classification is 1 (A450 nm 0-1) in test [1] (PDZ AIPC, PDZ Domain 1); 2 (A450 nm 1-2) in test [2] (PDZ DLG2, PDZ Domain 1); 5 (A450 nm of 4 more than 2× repeated) in test [2] (PDZ DLG2, PDZ Domain 2).
Take “GGGGGSGGGGGSGIESVKI [GLUR2 (glutamate receptor 2-modified)]”: the Classification is on record as 2 (A450 nm 1-2) in test [1] (PDZ AIPC, PDZ Domain 1) and 1 (A450 nm 0-1) in test [2] (PDZ DLG2, PDZ Domain 2).
On to `CC[C@H](C)[C@H](NC(=O)[C@H](Cc1ccc(O)cc1)NC(=O)[C@@H](NC(=O)[C@@H]1CCCN1C(=O)[C@H](CCC(N)=O)NC(=O)[C@H](CCC(=O)O)NC(=O)[C@H](CCC(N)=O)NC(=O)[C@H](C)NC(=O)[C@@H](NC(=O)[C@H](CC(C)C)NC(=O)[C@H](CC(C)C)NC(=O)[C@H](CCCNC(=N)N)NC(=O)[C@H](Cc1ccc(O)cc1)NC(=O)[C@H](CCSC)NC(=O)[C@H](C)NC(=O)[C@H](C)NC(=O)[C@@H]1CCCN1C(=O)[C@H](CCSC)NC(=O)[C@@H](NC(=O)[C@H](CCCCN)NC(=O)CCCC[C@@H]1SC[C@@H]2NC(=O)N[C@@H]21)[C@@H](C)O)[C@@H](C)O)C(C)C)C(=O)O` [MINT-1] (Biotin-KTMPAAMYRLLTAQEQPVYI-OH; C-terminus assumed), for which the Classification in test [1] (PDZ AIPC, PDZ Domain 1) is 1 (A450 nm 0-1); in test [1] (PDZ KIAA0300, PDZ Domain 1), 4 (A450 nm 3-4); in test [3] (PDZ Mint 1, PDZ Domain 1), 3 (A450 nm 2-3); in test [3] (PDZ Mint 1, PDZ Domain 1, 2), 5 (A450 nm of 4 more than 2× repeated).
With `CC[C@H](C)[C@H](NC(=O)[C@H](CC(=O)O)NC(=O)[C@H](CCC(=O)O)NC(=O)[C@H](CCCNC(=N)N)NC(=O)[C@@H](NC(=O)CCCC[C@@H]1SC[C@@H]2NC(=O)N[C@@H]21)[C@@H](C)O)C(=O)N[C@@H](Cc1ccc(O)cc1)C(=O)N[C@H](C(=O)N[C@@H](CC(N)=O)C(=O)N[C@@H](Cc1ccc(O)cc1)C(=O)N1CCC[C@H]1C(=O)N[C@H](C(=O)N[C@@H](Cc1ccccc1)C(=O)N[C@@H](CO)C(=O)N[C@@H](CCCNC(=N)N)C(=O)N[C@@H](CCCNC(=N)N)C(=O)N1CCC[C@H]1C(=O)N[C@@H](CCCCN)C(=O)N[C@H](C(=O)N[C@@H](CCCNC(=N)N)C(=O)N[C@H](C(=O)O)C(C)C)[C@@H](C)O)[C@@H](C)O)C(C)C` [DNAM-1] (Biotin-TREDIYVNYPTFSRRPKTRV-OH; C-terminus assumed), the pKd in test [4] is 5.40.
Consider “ELLQFCRTPNPALKNGQYWV (Biotin-ELLQFCRTPNPALKNGQYWV)”, for which the Classification in test [1] (PDZ AIPC, PDZ Domain 1) is recorded as 5 (A450 nm of 4 more than 2× repeated); in test [1] (PDZ KIAA0300, PDZ Domain 1), 2 (A450 nm 1-2); in test [3] (PDZ Mint 1, PDZ Domain 1), 2 (A450 nm 1-2); in test [3] (PDZ Mint 1, PDZ Domain 1, 2) it was 5 (A450 nm of 4 more than 2× repeated); in test [3] (PDZ Mint 1, PDZ Domain 2), 5 (A450 nm of 4 more than 2× repeated).
Consider `CC[C@H](C)[C@H](NC(=O)[C@H](CCC(=O)O)NC(=O)[C@H](CC(N)=O)NC(=O)[C@H](CCCNC(=N)N)NC(=O)[C@H](Cc1ccccc1)NC(=O)[C@H](CC(N)=O)NC(=O)[C@H](CO)NC(=O)[C@H](CC(N)=O)NC(=O)[C@H](CCC(=O)O)NC(=O)[C@H](CO)NC(=O)[C@H](CC(=O)O)NC(=O)[C@H](CO)NC(=O)[C@@H](NC(=O)[C@@H](NC(=O)[C@H](CC(=O)O)NC(=O)[C@H](CCCCN)NC(=O)CCCC[C@@H]1SC[C@@H]2NC(=O)N[C@@H]21)[C@@H](C)CC)[C@@H](C)O)C(=O)N[C@@H](CCC(N)=O)C(=O)N[C@@H](CO)C(=O)N[C@@H](CC(C)C)C(=O)N[C@H](C(=O)O)C(C)C` [CD95] (Biotin-KDITSDSENSNFRNEIQSLV-OH; C-terminus assumed), for which the Classification in test [1] (PDZ AIPC, PDZ Domain 1) is reported as 1 (A450 nm 0-1); in test [2] (PDZ DLG2, PDZ Domain 2), 1 (A450 nm 0-1).
Regarding `CC[C@H](C)[C@H](NC(=O)[C@H](CCC(=O)O)NC(=O)[C@H](CO)NC(=O)[C@H](CCC(=O)O)NC(=O)[C@H](CCCNC(=N)N)NC(=O)[C@H](CCCNC(=N)N)NC(=O)[C@H](CC(C)C)NC(=O)[C@@H]1CCCN1C(=O)[C@H](CCCNC(=N)N)NC(=O)[C@@H]1CCCN1C(=O)[C@H](CCC(=O)O)NC(=O)[C@H](CC(C)C)NC(=O)[C@@H]1CCCN1C(=O)[C@@H](NC(=O)[C@H](CO)NC(=O)[C@H](C)NC(=O)[C@H](CCC(N)=O)NC(=O)[C@H](CC(N)=O)NC(=O)[C@H](Cc1c[nH]cn1)NC(=O)[C@H](CC(C)C)NC(=O)CCCC[C@@H]1SC[C@@H]2NC(=O)N[C@@H]21)C(C)C)C(=O)O` [Kir2.1 (inwardly rect. K+ channel)] (Biotin-LHNQASVPLEPRPLRRESEI-OH; C-terminus assumed), the Classification in test [2] (PDZ DLG2, PDZ Domain 2) is listed as 1 (A450 nm 0-1).
As to “VHDAESSDEDGYDWGPATDL (Biotin-VHDAESSDEDGYDWGPATDL) [zona occludens 3 (ZO-3)]”, the Classification is 1 (A450 nm 0-1) in test [1] (PDZ AIPC, PDZ Domain 1) and 2 (A450 nm 1-2) in test [3] (PDZ Mint 1, PDZ Domain 2).
For the compound `CC(C)C[C@H](NC(=O)[C@H](CCCNC(=N)N)NC(=O)CNC(=O)CNC(=O)[C@H](CCCNC(=N)N)NC(=O)[C@H](C)NC(=O)[C@@H]1CCCN1C(=O)[C@H](CCCNC(=N)N)NC(=O)CNC(=O)CNC(=O)[C@@H](NC(=O)[C@H](C)NC(=O)CCCC[C@@H]1SC[C@@H]2NC(=O)N[C@@H]21)C(C)C)C(=O)N[C@@H](CCC(N)=O)C(=O)NCC(=O)N[C@@H](CCCNC(=N)N)C(=O)N[C@@H](CCCNC(=N)N)C(=O)N[C@@H](CCC(N)=O)C(=O)N[C@H](C(=O)N[C@@H](CCC(N)=O)C(=O)N[C@H](C(=O)O)C(C)C)[C@@H](C)O` [HPV E6 58 (modified)] (Biotin-AVGGRPARGGRLQGRRQTQV-OH; C-terminus assumed), the Classification is recorded as 5 (A450 nm of 4 more than 2× repeated) in test [2] (PDZ DLG2, PDZ Domain 2) and 1 (A450 nm 0-1) in test [3] (PDZ Mint 1, PDZ Domain 2).
Take “KTMPAAMFRLLTGQETPLYI (Biotin-KTMPAAMFRLLTGQETPLYI) [MINT-2]”: the Classification in test [1] (PDZ AIPC, PDZ Domain 1) is recorded as 1 (A450 nm 0-1); in test [1] (PDZ KIAA0300, PDZ Domain 1), 3 (A450 nm 2-3); in test [3] (PDZ Mint 1, PDZ Domain 1), 2 (A450 nm 1-2); in test [3] (PDZ Mint 1, PDZ Domain 1, 2), 5 (A450 nm of 4 more than 2× repeated); in test [3] (PDZ Mint 1, PDZ Domain 2), 1 (A450 nm 0-1).
